Reference: the supplement of paper PMC11451515

System: NOMO1
Experiment: cell viability relative to DMSO control; higher = less cytotoxic
Conditions: 48 h
Outline: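 NOMO1, SEM and P12-Ichikawa leukemia cells spent at least four passages adapting to each medium before use. They were seeded at 500 cells/well (NOMO1, SEM) or 1000 cells/well (P12-Ichikawa) in 5 μl in 1536-well plates and pin-dosed with library compounds in DMSO at 11 threefold steps from 47 μM down to 0.79 nM. After 48 h at 37°C, CellTiter-Glo One luminescence was read. Viability is reported as a percentage of the DMSO wells on each plate, with cell-free wells as background.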

[1] = HPLM + 10% dialyzed FBS, 0.000781 µM
[2] = HPLM + 10% dialyzed FBS, 0.00234 µM
[3] = HPLM + 10% dialyzed FBS, 0.00702 µM
[4] = HPLM + 10% dialyzed FBS, 0.0211 µM
[5] = HPLM + 10% dialyzed FBS, 0.0632 µM
[6] = HPLM + 10% dialyzed FBS, 0.19 µM
[7] = HPLM + 10% dialyzed FBS, 0.569 µM
[8] = HPLM + 10% dialyzed FBS, 1.71 µM
[9] = HPLM + 10% dialyzed FBS, 5.12 µM
[10] = HPLM + 10% dialyzed FBS, 15.4 µM
[11] = HPLM + 10% dialyzed FBS, 46.1 µM
[12] = RPMI 5 mM glucose + 10% FBS, 0.000781 µM
[13] = RPMI 5 mM glucose + 10% FBS, 0.00234 µM
[14] = RPMI 5 mM glucose + 10% FBS, 0.00702 µM
[15] = RPMI 5 mM glucose + 10% FBS, 0.0211 µM
[16] = RPMI 5 mM glucose + 10% FBS, 0.0632 µM
[17] = RPMI 5 mM glucose + 10% FBS, 0.19 µM
[18] = RPMI 5 mM glucose + 10% FBS, 0.569 µM
[19] = RPMI 5 mM glucose + 10% FBS, 1.71 µM
[20] = RPMI 5 mM glucose + 10% FBS, 5.12 µM
[21] = RPMI 5 mM glucose + 10% FBS, 15.4 µM
[22] = RPMI 5 mM glucose + 10% FBS, 46.1 µM
[23] = RPMI 5 mM glucose + 10% dialyzed FBS, 0.000781 µM
[24] = RPMI 5 mM glucose + 10% dialyzed FBS, 0.00234 µM
[25] = RPMI 5 mM glucose + 10% dialyzed FBS, 0.00702 µM
[26] = RPMI 5 mM glucose + 10% dialyzed FBS, 0.0211 µM
[27] = RPMI 5 mM glucose + 10% dialyzed FBS, 0.0632 µM
[28] = RPMI 5 mM glucose + 10% dialyzed FBS, 0.19 µM
[29] = RPMI 5 mM glucose + 10% dialyzed FBS, 0.569 µM
[30] = RPMI 5 mM glucose + 10% dialyzed FBS, 1.71 µM
[31] = RPMI 5 mM glucose + 10% dialyzed FBS, 5.12 µM
[32] = RPMI 5 mM glucose + 10% dialyzed FBS, 15.4 µM
[33] = RPMI 5 mM glucose + 10% dialyzed FBS, 46.1 µM

Row | SMILES | cell viability [1] [%] | cell viability [2] [%] | cell viability [3] [%] | cell viability [4] [%] | cell viability [5] [%] | cell viability [6] [%] | cell viability [7] [%] | cell viability [8] [%] | cell viability [9] [%] | cell viability [10] [%] | cell viability [11] [%] | cell viability [12] [%] | cell viability [13] [%] | cell viability [14] [%] | cell viability [15] [%] | cell viability [16] [%] | cell viability [17] [%] | cell viability [18] [%] | cell viability [19] [%] | cell viability [20] [%] | cell viability [21] [%] | cell viability [22] [%] | cell viability [23] [%] | cell viability [24] [%] | cell viability [25] [%] | cell viability [26] [%] | cell viability [27] [%] | cell viability [28] [%] | cell viability [29] [%] | cell viability [30] [%] | cell viability [31] [%] | cell viability [32] [%] | cell viability [33] [%]
1 | C[C@@H]1CC[C@@]2(CC[C@]3(C)\C(=C/C[C@@H]4[C@@]5(C)CC[C@H](O)C(C)(C)[C@@H]5CC[C@@]34C)[C@@H]2[C@H]1C)C(O)=O | 111 | 120 | 116 | 113 | 111 | 127 | 130 | 113 | 113 | 111 | 119 | 113 | 108 | 120 | 106 | 112 | 108 | 98.7 | 104 | 102 | 112 | 106 | 104 | 120 | 117 | 125 | 124 | 113 | 121 | 112 | 114 | 106 | 114
2 | CN(CCOc1ccc(CC2SC(=O)NC2=O)cc1)c1ccccn1 (centres undefined) | – | – | – | – | – | – | – | – | – | – | – | 110 | 113 | 121 | 108 | 115 | 117 | 113 | 112 | 127 | 113 | 109 | – | – | – | – | – | – | – | – | – | – | –
3 | C[C@]12CCC3c4ccc(O)cc4CCC3C1CCC2=O (some centres undefined) | 102 | 102 | 106 | 103 | 107 | 91.9 | 86.2 | 81.6 | 93 | 78.2 | 79.9 | 92.2 | 91.7 | 92.3 | 85.7 | 87.7 | 88.2 | 92.4 | 90.8 | 96.1 | 76 | 79.6 | 82.1 | 90.5 | 91.7 | 92.8 | 96.4 | 86.5 | 86.1 | 84.4 | 89 | 88.6 | 81.1
4 | CCC(C)CCCCC(=O)N[C@@H](CCN)C(=O)NC(C(=O)N[C@H](CCN)C(=O)N[C@@H]1CCNC(=O)C([C@@H](C)O)NC(=O)[C@@H](CCN)NC(=O)[C@@H](CCN)NC(=O)[C@@H](CC(C)C)NC(=O)[C@H](Cc2ccccc2)NC(=O)[C@H](CCN)NC1=O)[C@@H](C)O (some centres undefined) | 118 | 110 | 113 | 112 | 123 | 133 | 137 | 119 | 124 | 127 | 125 | 102 | 125 | 109 | 108 | 112 | 120 | 118 | 130 | 130 | 126 | 115 | 113 | 121 | 134 | 130 | 131 | 131 | 137 | 134 | 124 | 135 | 123
5 | O=C(O)c1cc(O)c2c(c1)C(=O)c1cccc(O)c1C2=O | 113 | 111 | 127 | 107 | 127 | 117 | 127 | 125 | 113 | 104 | 94.3 | 115 | 120 | 116 | 121 | 114 | 101 | 103 | 110 | 107 | 99.5 | 104 | 110 | 119 | 102 | 121 | 112 | 107 | 112 | 119 | 119 | 95.4 | 96.2
6 | CN(C)c1nc(Cc2ccc(NC(=O)c3ccc(C(F)(F)F)cc3)cc2)nc(N(C)C)c1CC(=O)O | 120 | 101 | 107 | 94.5 | 119 | 112 | 103 | 96.2 | 107 | 108 | 91.1 | 93 | 88.6 | 87.1 | 82.7 | 99.4 | 89.4 | 95.7 | 96.6 | 86 | 91.8 | 85.5 | 96.1 | 95.2 | 96.2 | 94.1 | 91.6 | 97.8 | 98 | 99.8 | 96.9 | 86.9 | 86.8
7 | O=C(O)c1ccc(O)c2ncc(N3CCOCC3)cc12 | 90.9 | 108 | 99.9 | 103 | 99.3 | 101 | 109 | 105 | 97.2 | 83.6 | 18.9 | 93.9 | 91.1 | 92.7 | 92.1 | 89.4 | 86.3 | 87.5 | 86.2 | 85.4 | 79.3 | 73.8 | 98.1 | 101 | 111 | 104 | 107 | 94.2 | 126 | 102 | 91.2 | 104 | 81.5
8 | OC[C@H]1O[C@H](C[C@@H]1O)N2/C=C(C(=O)NC2=O)/C(F)(F)F | 128 | 120 | 106 | 116 | 120 | 114 | 82.8 | 58.8 | 69.7 | 45 | 26.5 | 99.8 | 117 | 116 | 116 | 114 | 107 | 118 | 115 | 107 | 86.9 | 42.9 | 115 | 110 | 121 | 113 | 103 | 113 | 97.4 | 96 | 67.7 | 31.3 | 18.3
9 | C[C@]12CC[C@H]3[C@@H](CC(=C)\C4=C\C(=O)\C=C/[C@]34C)[C@@H]1CCC2=O | 111 | 105 | 92.2 | 107 | 105 | 99.1 | 99.1 | 113 | 119 | 99.6 | 52.8 | 99.5 | 89.3 | 95.8 | 90.4 | 92.6 | 92.1 | 97.8 | 90.6 | 81.6 | 80.3 | 74.9 | 75.8 | 100 | 99.7 | 108 | 98.3 | 91.6 | 94.4 | 102 | 92.5 | 86.4 | 61.8
10 | CCCN[C@H]1CCc2nc(N)sc2C1 | 105 | 102 | 104 | 116 | 95.4 | 102 | 119 | 112 | 123 | 118 | 114 | 86.8 | 84.8 | 96.6 | 89.3 | 92.6 | 90.6 | 85.3 | 96.2 | 96.7 | 90.5 | 89.3 | 83.9 | 93.1 | 104 | 98.8 | 106 | 102 | 101 | 107 | 87.1 | 109 | 82.4
11 | Cc1ccc([C@@H]2O[C@H](CO)[C@@H](O)[C@H](O)[C@H]2O)cc1Cc1ccc(-c2ccc(F)cc2)s1 | 122 | 138 | 122 | 129 | 127 | 129 | 119 | 127 | 142 | 122 | 85.3 | – | – | – | – | – | – | – | – | – | – | – | – | – | – | – | – | – | – | – | – | – | –
12 | CCn1nnc2c(N3CCOCC3)nc(-c3ccc(NC(=O)Nc4ccc(C(=O)N5CCN(C)CC5)cc4)cc3)nc21 | 117 | 109 | 94.2 | 67.2 | 63.4 | 53.9 | 101 | 65.7 | 60.7 | 51.4 | 48 | 90.8 | 107 | 94.1 | 85.6 | 76.5 | 67.7 | 105 | 79.9 | 72.4 | 69.9 | 61.2 | 89.3 | 97.2 | 89.7 | 75.3 | 60.9 | 60.2 | 89.8 | 62.5 | 53.5 | 55.9 | 56
13 | CCN(CC)CCNC(=O)c1c(C)[nH]c(/C=C2\C(=O)Nc3ccc(F)cc32)c1C | 79.5 | 103 | 109 | 124 | 87.1 | 23.4 | 30.7 | 23 | 29.1 | 6.81 | 4.98 | 106 | 103 | 109 | 113 | 115 | 45.5 | 16.1 | 21.9 | 24.7 | 11.5 | 3.98 | 97.7 | 110 | 100 | 117 | 117 | 43.1 | 22.3 | 25.9 | 31.8 | 11.3 | 3.82
14 | O=C(/C=C/c1ccc(/C=C/C(=O)Nc2ccc(C3=NCCN3)cc2)cc1)Nc1ccc(C2=NCCN2)cc1 | 103 | 108 | 111 | 108 | 111 | 116 | 117 | 123 | 121 | 111 | 122 | 104 | 98.8 | 115 | 117 | 123 | 106 | 106 | 115 | 117 | 125 | 131 | 88.2 | 107 | 95.5 | 106 | 117 | 117 | 113 | 112 | 108 | 112 | 102
15 | NC(=O)c1cccc(-c2cc(Nc3ccc(OC(F)(F)F)cc3)ncn2)c1 | 88.6 | 99.5 | 96 | 93.9 | 108 | 101 | 97.2 | 94.1 | 103 | 84.5 | 81.4 | 85.8 | 91 | 93.4 | 95.7 | 90 | 103 | 103 | 85.8 | 90.3 | 84.1 | 80.5 | 91.7 | 94.7 | 84.3 | 86.1 | 93.3 | 92.8 | 88.2 | 89.1 | 94.2 | 79.6 | 91.7
16 | CCCCCCNC(=O)N1\C=C(F)/C(=O)NC1=O | 117 | 136 | 124 | 127 | 128 | 137 | 122 | 124 | 118 | 94.6 | 79.9 | 111 | 119 | 136 | 109 | 109 | 114 | 129 | 127 | 122 | 115 | 83.9 | 124 | 136 | 124 | 122 | 110 | 128 | 130 | 120 | 110 | 82.3 | 69.6
